Where “and” joins values, the source holds several entries; their conditions need not be identical. Identical values can stand only once. Like-named read-outs stand apart in the source and are kept apart here.
Legend:
[1] = Odiparcil tissue exposure after repeated oral dosing (LC-MS/MS); assay type: in vivo, Sprague Dawley rats; conditions: rat
Procedure: Sprague Dawley rats were orally administered with odiparcil for 5-days, three times a day (t.i.d) with a 25 mg/kg/dose as a suspension in Methylcellulose 400 cps 1% / Poloxamer 188 0.1% / Water. On day 5, only one dose was administered and tissues–bone from head of femurs and cartilage also from head of femurs, cornea and heart–were collected at 30 min post-dosing, 3 animals per sample. Tissues were snap-frozen immediately after collection and stored at -20°C until odiparcil quantification by LC-MS/MS. Non compartmental method was applied with Phoenix WinNonLin® to estimate the Cmax and AUC parameters. Tissue partition coefficient (Kp) was calculated on AUC values (AUC tissue / AUC plasma). Moreover, Kp for the heart was corrected for the significant blood content (26%) while it was not corrected for bone, cartilage and cornea.

Arsb^- mice = test: Cartilage thickness in trachea and distal femoral growth plate (histology); assay type: in vivo
Procedure: MPS VI model nonsense mutation Arsb^m1J homozygous mice (referred to as Arsb^- throughout the manuscript) and WT littermates were obtained from internal breeding of stock mice derived from The Jackson Laboratory strain No: 005598 (C57BL/6J-Arsb^m1J/GrsrJ). Genotyping and Arsb^m1J mutation identification were performed according to the protocol provided by The Jackson Laboratory. Each study group contained mix of male and female: 6 animals in disease progression studies and between 8 and 12 animals in odiparcil treatment studies.
Housing conditions. The animals were housed in groups of 3–10 (for mice) or 2 (for rats) in polypropylene cages (floor area = 1032 cm^2) under standard conditions: room temperature (22 ± 2°C), hygrometry (55 ± 10%), light/dark cycle (12h/12h), air replacement (15–20 volumes/hour), water and food ad libitum. Mice were allowed to habituate for at least 5 days prior to experimentation. Mice were numbered by marking their tail using indelible markers. For the early disease model (treatment starting in juvenile, 4 weeks old mice), odiparcil administration in the weeks 1 to 6 was done per gavage with odiparcil in Methylcellulose 400 cps 1% / Poloxamer 188 0.1% / Water, freshly prepared every week. Later on, administration was per chow diet with odiparcil mixed before diet granulation. […]

[2] = more than 30 clinical trials, total of 1900 subjects; earlier development as antithrombotic agent; cited from earlier work

Structure (SMILES): Cc1cc(=O)oc2cc(O[C@@H]3SC[C@@H](O)[C@H](O)[C@H]3O)ccc12 [Odiparcil, 4-methyl-7-(5-thio-β-D-xylopyranosyloxy)-2 H-chromen-2-one]
- Cmax ([1]; Sprague-Dawley, bone (head of femurs), po, 25 mg/kg, bone (head of femurs), oral 25 mg/kg/dose t.i.d. 5 days, read-out: Cmax (converted)): 1310 ng/g
- Cmax ([1]; Sprague-Dawley, bone (head of femurs), po, 25 mg/kg, bone, oral 25 mg/kg/dose t.i.d. 5 days, read-out: Cmax (converted)): 4 µM
- Kp at 120 h ([1]; Sprague-Dawley, bone (head of femurs), po, 25 mg/kg, bone, oral 25 mg/kg/dose t.i.d. 5 days, read-out: Kp AUC (AUC tissue / AUC plasma)): 0.18
- Kp ([1]; Sprague-Dawley, bone, cartilage, cornea, po, 25 mg/kg/dose, bone, cartilage and cornea together, repeated oral dosing, read-out: AUC Kp): ~0.15
- Cmax ([1]; Sprague-Dawley, bone, cartilage, cornea, po, 25 mg/kg/dose, span over bone, cartilage and cornea, repeated oral dosing, read-out: Cmax (converted)): 500 ng/g to 1300 ng/g and 1.7 µM to 4 µM
- Cmax ([1]; Sprague-Dawley, cartilage (head of femurs), po, 25 mg/kg, cartilage (head of femurs), oral 25 mg/kg/dose t.i.d. 5 days, read-out: Cmax (converted)): 1100 ng/g
- Cmax ([1]; Sprague-Dawley, cartilage (head of femurs), po, 25 mg/kg, cartilage, oral 25 mg/kg/dose t.i.d. 5 days, read-out: Cmax (converted)): 3.4 µM
- Kp at 120 h ([1]; Sprague-Dawley, cartilage (head of femurs), po, 25 mg/kg, cartilage, oral 25 mg/kg/dose t.i.d. 5 days, read-out: Kp AUC (AUC tissue / AUC plasma)): 0.12
- Cmax ([1]; Sprague-Dawley, cornea, po, 25 mg/kg, cornea, oral 25 mg/kg/dose t.i.d. 5 days, read-out: Cmax (converted)): 535 ng/g and 1.7 µM
- Kp at 120 h ([1]; Sprague-Dawley, cornea, po, 25 mg/kg, cornea, oral 25 mg/kg/dose t.i.d. 5 days, read-out: Kp AUC (AUC tissue / AUC plasma)): 0.12
- Kp at 120 h ([1]; Sprague-Dawley, heart, po, 25 mg/kg, heart, corrected for blood content (26%), oral 25 mg/kg/dose t.i.d. 5 days, read-out: blood corrected Kp AUC): ~0.44
- Kp at 120 h ([1]; Sprague-Dawley, heart, po, 25 mg/kg, heart, not blood corrected, oral 25 mg/kg/dose t.i.d. 5 days, read-out: Kp AUC (AUC tissue / AUC plasma)): 0.69
- Cmax ([1]; Sprague-Dawley, heart, po, 25 mg/kg, heart, oral 25 mg/kg/dose t.i.d. 5 days, read-out: Cmax (converted)): ~4600 ng/g and ~14.3 µM
- Cmax ([1]; Sprague-Dawley, plasma, po, 25 mg/kg, plasma, oral 25 mg/kg/dose t.i.d. 5 days, 30 min after last administration, read-out: Cmax (converted)): ~7300 ng/mL
- Cmax ([1]; Sprague-Dawley, plasma, po, 25 mg/kg, plasma, oral 25 mg/kg/dose t.i.d. 5 days, read-out: Cmax (converted)): ~22.5 µM
- AUC ([1]; Sprague-Dawley, plasma, oral 25 mg/kg/dose t.i.d. 5 days, read-out: AUC (converted)): 14800 ng·h/mL
- AUC ([1]; bone, oral 25 mg/kg/dose t.i.d. 5 days): 2 646 ng.h/g
- AUC ([1]; cartilage, oral 25 mg/kg/dose t.i.d. 5 days): 1 805 ng.h/g
- AUC ([1]; cornea, oral 25 mg/kg/dose t.i.d. 5 days): 1 737 ng.h/g
- AUC ([1]; heart, oral 25 mg/kg/dose t.i.d. 5 days): 10 203 ng.h/g
- Cmax ([1]; plasma, oral 25 mg/kg/dose t.i.d. 5 days, 30 min after last administration, 25 mg/kg): 7 297 ng/mL
- Cartilage thickening in trachea and distal femoral growth plate (Arsb^- mice; Arsb^- mice, early and established disease models, 6 months of treatment): dose-dependent reduction of cartilage thickening
- Cartilage thickness in wild type animals (Arsb^- mice; wild type mice, early disease treatment model, only distal femoral growth plate, significant only for the high dose): Some decrease in the thickness of cartilage
- Safety and tolerability in clinical trials [2]: good safety and tolerability
